Assay in all cases: inhibition of tumour cell growth, NCI panel, 48 h
For assay [1], the system named is SK-MEL-28 melanoma.
In assay [2] the test system is SNB-78 CNS.
In assay [3] the test system is DLD-1 colon.
The subject of assay [4] is OVCAR-8 ovarian.
The test system of assay [5] is SF-295 CNS.
For assay [6], the system named is UACC-257 melanoma.
For assay [7], the system named is MALME-3M melanoma.
The subject of assay [8] is T-47D breast.
The test system of assay [9] is PC-3 prostate.
The subject of assay [10] is HS 578T breast.

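Briefly, cells in 96-well plates were exposed to five compound concentrations for 48 h, and endpoints were estimated by linear interpolation. GI50 is the concentration that inhibits growth by half. TGI: concentration producing complete growth inhibition.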 Some results are limits rather than exact numbers.

With `O=S(=O)(/C=C/c1ccc(Cl)cc1Cl)Cc1ccccc1CS(=O)(=O)/C=C/c1ccc(Cl)cc1Cl`, the TGI in [1], in assay [2], in assay [3], in assay [4], in assay [5] and in assay [6] was greater than 100 µM each time.

Consider `CS(=O)(=O)NNS(=O)(=O)c1cccc([N+](=O)[O-])c1`, for which the TGI in assay [3], in assay [7], in assay [4], in assay [5] and in assay [6] was greater than 100 µM each time.

Consider `CCOC12OC3=C(CC1CC1=C(CCC1=O)O2)C(=O)CC3` (configuration not stated), for which the TGI in [2], in assay [3], in assay [7], in assay [4], in assay [5] and in [6] was greater than 100 µM in each case.

`CN(C)CCNC(=O)c1cc2ccccc2c2nc3ccccc3nc12`: the TGI in assay [1] is 2.96 µM; in assay [2] it was 16.4 µM; in assay [3] it was 3.59 µM; in [7] it was 2.06 µM; in assay [4], greater than 20.4 µM; in assay [6] it was 3.09 µM.

In the case of `CC(=O)[CH-]C(=O)c1ccccc1.CC(=O)[CH-]C(=O)c1ccccc1.CC[O-].CC[O-].[Zr+4]`, the GI50 in assay [1], in assay [3], in [7], in [4], in assay [5] and in assay [6] was greater than 100 µM each time. Also, the TGI in [1], in [3], in [7], in [4], in [5] and in assay [6] was greater than 100 µM throughout.

As for `O=C(O)C(CP(=O)(O)O)=C(Cl)Cl`, the TGI in assay [1], in assay [2], in assay [7], in [4], in assay [5] and in assay [6] was greater than 100 µM in each case.

Consider `Cc1ccc(NC(=O)CCC(CC(=O)C(C)(C)C)=NNC(=O)C(=O)NN)cc1C`, for which the TGI in [1], in assay [3], in assay [7], in assay [4], in assay [5] and in [6] was greater than 100 µM each time.

Turning to `COc1cc(/C=C2/C(=O)N(C(=O)OC(C)C)C(Cc3cc(OC)c(OC)c(C)c3OC)C(=O)N2Cc2ccccc2)c(OC)c(C)c1OC` (configuration not stated), the TGI in [1], in assay [3], in [7], in assay [4], in assay [5] and in assay [6] was greater than 100 µM each time.

Turning to `COc1ccc(C(=O)OCC2OC(n3cnc4c(=S)nc[nH]c43)C(OC(=O)c3ccc(OC)cc3)C2OC(=O)c2ccc(OC)cc2)cc1` (configuration not stated), the TGI in [1], in [3], in assay [7], in assay [4], in [5] and in assay [6] was greater than 100 µM throughout.

`CCC[CH2][Sn]1([CH2]CCC)[O]C(=O)c2cc(I)cc(I)c2[O]1`: the GI50 in [2] is 0.536 µM; in assay [3], 1.15 µM; in [7] it was 1 µM; in [4], 1.41 µM; in assay [5] it was 1.91 µM; in assay [6], 1.24 µM. Also, the TGI in assay [2] was determined as 2.37 µM; in [3] it was 2.42 µM; in assay [7] it was 2.23 µM; in assay [4], 3.01 µM; in [5], 3.53 µM; in assay [6], 2.55 µM.

Take `Cn1cc(-c2nc(-c3c[nH]c4ncccc34)cs2)c2cc(F)ccc21`: the GI50 in assay [1] is 4.75 µM; in assay [8], 0.0443 µM; in [9], 2.75 µM; in [7], 2.73 µM; in assay [4], 2.96 µM; in [5], 2.18 µM. Also, the GI50 in assay [10] was 4.23 µM; in assay [6], 2.72 µM. Moreover, the TGI in assay [1] is 16.9 µM; in assay [8] it was 4.43 µM; in assay [9] it was 13.1 µM; in [7], 13.4 µM; in [4] it was greater than 25.3 µM; in assay [5], 6.93 µM. Further, the TGI in assay [10] is greater than 100 µM; in assay [6], 12.3 µM.

Take `C=C1C(=O)O[C@@H]2C[C@@]3(C)CCC[C@H](C)C3=C[C@H]12`: the TGI came out at 20.5 µM in [1]; 9.36 µM in assay [8]; 24.2 µM in assay [9]; 15.8 µM in assay [7]; 19.5 µM in [4]; 34.5 µM in [5]. The figures for the TGI in assay [10] and in assay [6] were 19.1 µM and 20.1 µM, respectively.

As to `O=C(CN1CCN(c2ncnc3ccccc23)CC1)Nc1ccc(Cl)cc1C(=O)c1ccccc1Cl`, the GI50 is 1.03 µM in [1]; 0.339 µM in assay [8]; 0.818 µM in [9]; 0.289 µM in [7]; 1.28 µM in assay [4]; 1.11 µM in assay [5]. The GI50 in assay [10] was 0.478 µM; in [6], 2.04 µM. For the same compound, the TGI was 3.36 µM in [1]; 3.25 µM in assay [8]; greater than 56.3 µM in assay [9]; 2.52 µM in assay [7]; greater than 30.9 µM in assay [4]; 6.07 µM in assay [5]. The TGI stood at 3.7 µM in assay [10] and 6.69 µM in assay [6].

Regarding `O=C1NN(c2ccc(C(=O)O)cc2)C(=O)/C1=C\c1ccc([N+](=O)[O-])o1`, the GI50 in [1] is greater than 100 µM; in [8], 21.4 µM; in [9], greater than 100 µM; in [7], 20.7 µM; in assay [4], 51.1 µM; in [5], greater than 100 µM. The GI50 in [10] and in [6] was greater than 100 µM throughout. The TGI in assay [1] is greater than 100 µM; in assay [8], 50 µM; in assay [9] it was greater than 100 µM; in assay [7], 41.2 µM; in assay [4], greater than 100 µM; in [5], greater than 100 µM. Moreover, the TGI in assay [10] and in assay [6] was greater than 100 µM throughout.

The values are drawn from PubChem BioAssay (NCI).
